Laboratory results as given in PMC10964739 (Toxicological Sciences, 2024).

Tests used:
[1] = target: TOP2B (topoisomerase IIβ) (Homo sapiens, UniProt Q02880); assay: kDNA decatenation assay with recombinant enzyme; assay type: biochemical
[2] = target: TOP2A (topoisomerase IIα) (Homo sapiens, UniProt P11388); assay: kDNA decatenation assay with recombinant enzyme; assay type: biochemical
TOP2A (topoisomerase IIα), sequence (P11388 whole entry): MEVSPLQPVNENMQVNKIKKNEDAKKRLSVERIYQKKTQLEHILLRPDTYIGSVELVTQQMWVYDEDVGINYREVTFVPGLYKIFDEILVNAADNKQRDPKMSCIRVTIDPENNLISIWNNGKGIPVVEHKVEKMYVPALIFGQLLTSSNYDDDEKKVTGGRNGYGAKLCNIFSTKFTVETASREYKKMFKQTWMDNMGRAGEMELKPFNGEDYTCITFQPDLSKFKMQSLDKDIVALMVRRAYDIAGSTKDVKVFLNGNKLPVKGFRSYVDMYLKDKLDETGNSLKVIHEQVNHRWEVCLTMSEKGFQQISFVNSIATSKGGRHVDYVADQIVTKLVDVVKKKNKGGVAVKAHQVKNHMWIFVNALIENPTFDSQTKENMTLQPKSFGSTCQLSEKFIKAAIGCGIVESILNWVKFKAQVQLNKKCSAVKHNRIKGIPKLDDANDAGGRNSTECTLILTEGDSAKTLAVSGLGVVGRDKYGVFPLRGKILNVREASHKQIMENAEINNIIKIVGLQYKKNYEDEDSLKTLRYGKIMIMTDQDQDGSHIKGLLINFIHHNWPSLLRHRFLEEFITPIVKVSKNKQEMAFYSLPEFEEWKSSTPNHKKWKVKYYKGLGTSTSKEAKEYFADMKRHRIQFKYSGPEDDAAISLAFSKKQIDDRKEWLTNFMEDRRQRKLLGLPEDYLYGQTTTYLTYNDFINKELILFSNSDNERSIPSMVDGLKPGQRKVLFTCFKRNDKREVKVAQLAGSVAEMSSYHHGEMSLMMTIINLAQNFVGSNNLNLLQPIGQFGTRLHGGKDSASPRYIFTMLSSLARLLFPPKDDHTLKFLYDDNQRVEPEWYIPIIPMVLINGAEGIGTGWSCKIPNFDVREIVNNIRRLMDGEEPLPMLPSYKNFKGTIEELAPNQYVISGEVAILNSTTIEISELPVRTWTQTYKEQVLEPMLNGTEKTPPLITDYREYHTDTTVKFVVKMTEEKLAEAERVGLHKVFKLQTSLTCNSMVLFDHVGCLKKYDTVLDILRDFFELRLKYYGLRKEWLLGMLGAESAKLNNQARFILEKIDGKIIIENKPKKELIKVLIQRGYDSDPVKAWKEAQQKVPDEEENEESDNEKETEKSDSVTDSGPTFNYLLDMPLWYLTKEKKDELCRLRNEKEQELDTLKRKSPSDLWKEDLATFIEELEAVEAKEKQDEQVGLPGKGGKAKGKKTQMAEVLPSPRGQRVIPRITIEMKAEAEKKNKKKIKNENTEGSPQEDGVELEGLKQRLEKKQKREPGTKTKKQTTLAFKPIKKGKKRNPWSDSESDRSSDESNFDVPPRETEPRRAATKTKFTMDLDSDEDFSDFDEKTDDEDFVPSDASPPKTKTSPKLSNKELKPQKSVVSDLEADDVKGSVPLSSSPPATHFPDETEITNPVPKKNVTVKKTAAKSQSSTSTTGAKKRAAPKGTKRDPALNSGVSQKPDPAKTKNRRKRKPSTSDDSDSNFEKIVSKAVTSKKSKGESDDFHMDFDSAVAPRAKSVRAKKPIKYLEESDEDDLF

TOP2B (topoisomerase IIβ), sequence (Q02880 2-1626): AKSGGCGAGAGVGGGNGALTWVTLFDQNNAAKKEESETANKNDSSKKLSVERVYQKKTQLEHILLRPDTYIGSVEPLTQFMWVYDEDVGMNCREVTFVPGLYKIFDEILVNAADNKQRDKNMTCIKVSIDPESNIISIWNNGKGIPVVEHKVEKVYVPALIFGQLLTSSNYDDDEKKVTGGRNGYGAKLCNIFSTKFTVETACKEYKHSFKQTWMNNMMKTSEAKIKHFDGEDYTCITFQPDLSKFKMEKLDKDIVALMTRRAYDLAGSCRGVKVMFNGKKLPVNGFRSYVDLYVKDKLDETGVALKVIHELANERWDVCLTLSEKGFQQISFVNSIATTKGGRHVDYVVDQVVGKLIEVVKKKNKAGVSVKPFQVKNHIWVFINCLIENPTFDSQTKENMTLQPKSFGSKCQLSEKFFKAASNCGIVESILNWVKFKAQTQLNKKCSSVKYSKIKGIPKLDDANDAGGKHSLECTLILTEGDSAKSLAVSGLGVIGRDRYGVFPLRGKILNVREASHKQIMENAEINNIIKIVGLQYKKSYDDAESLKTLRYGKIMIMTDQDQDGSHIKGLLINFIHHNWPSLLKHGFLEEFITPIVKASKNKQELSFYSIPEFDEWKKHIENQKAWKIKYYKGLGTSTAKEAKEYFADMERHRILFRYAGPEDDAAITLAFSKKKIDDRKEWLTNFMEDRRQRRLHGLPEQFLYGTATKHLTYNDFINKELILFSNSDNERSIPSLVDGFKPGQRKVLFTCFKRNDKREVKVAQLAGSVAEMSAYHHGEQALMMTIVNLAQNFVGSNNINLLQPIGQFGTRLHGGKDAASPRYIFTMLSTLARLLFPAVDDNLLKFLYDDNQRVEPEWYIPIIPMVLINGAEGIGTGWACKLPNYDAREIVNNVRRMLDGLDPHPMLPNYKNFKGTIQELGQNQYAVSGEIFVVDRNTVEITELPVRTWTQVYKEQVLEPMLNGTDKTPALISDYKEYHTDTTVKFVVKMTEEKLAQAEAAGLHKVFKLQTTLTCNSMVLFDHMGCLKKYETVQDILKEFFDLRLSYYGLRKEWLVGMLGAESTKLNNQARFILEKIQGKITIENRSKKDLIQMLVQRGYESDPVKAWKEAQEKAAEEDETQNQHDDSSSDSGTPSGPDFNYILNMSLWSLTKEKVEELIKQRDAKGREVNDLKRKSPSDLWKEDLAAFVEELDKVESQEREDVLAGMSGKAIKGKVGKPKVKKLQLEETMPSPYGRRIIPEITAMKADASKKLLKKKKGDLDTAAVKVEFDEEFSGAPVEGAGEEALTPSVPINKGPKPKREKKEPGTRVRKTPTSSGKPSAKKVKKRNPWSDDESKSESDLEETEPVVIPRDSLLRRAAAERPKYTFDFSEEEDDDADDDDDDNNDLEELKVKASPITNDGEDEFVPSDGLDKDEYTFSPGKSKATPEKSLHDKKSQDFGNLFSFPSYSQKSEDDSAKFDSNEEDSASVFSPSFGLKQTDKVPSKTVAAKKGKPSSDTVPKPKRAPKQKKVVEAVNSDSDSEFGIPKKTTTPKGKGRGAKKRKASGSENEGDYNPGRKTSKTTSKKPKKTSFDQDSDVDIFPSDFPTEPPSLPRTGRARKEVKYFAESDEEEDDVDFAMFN

SMILES	IC50 [1] [µM]	IC50 [2] [µM]
CC(Oc1ccc(Oc2cnc3ccc(Cl)cc3n2)cc1)C(=O)O (racemic) [XK469, 2(R)-[4-(7-chloro-2-quinoxalinyl)oxyphenoxy]propionic acid]	~130	~130
C[C@@H](CN1CC(=O)NC(=O)C1)N1CC(=O)NC(=O)C1 [DEX, dexrazoxane]	~60	~60
